Experimental findings from patent publication US11008323B2, “Substituted tricyclic 1,4-benzodiazepinone derivatives as allosteric modulators of group II metabotropic glutamate receptors” (Domain Therapeutics, priority 2015, dated 2021) are described below.

Structures are written as SMILES. A value given as a limit tells only on which side of the number the result lay.

One data set concerns the target T1, human mGluR3 (hmGluR3) (Homo sapiens, UniProt Q14832).
T1 construct: expressed in transfected cells; host or cells: HEK-293 cells, transient co-transfection by electroporation
The experiment in a line: Human mGluR3 positive allosteric modulator evaluation using Ca++ functional assay. To be noted: hmGluR3 transiently over-expressed in HEK-293 cells; stimulated by EC50 glutamate concentration; intracellular Ca2+ (Fluo4AM, FLIPR Tetra). The format is cell-based. The gist of the method:
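HEK-293 cells transiently co-expressing hmGluR3, a chimeric G protein and two glutamate transporters; Fluo4 calcium read on FLIPR. Compound alone for 10 min (agonist), then EC50 glutamate for 3 min (PAM); 20-point curves gave EC50, duplicate, two independent runs.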

T1 sequence (Q14832 23-879): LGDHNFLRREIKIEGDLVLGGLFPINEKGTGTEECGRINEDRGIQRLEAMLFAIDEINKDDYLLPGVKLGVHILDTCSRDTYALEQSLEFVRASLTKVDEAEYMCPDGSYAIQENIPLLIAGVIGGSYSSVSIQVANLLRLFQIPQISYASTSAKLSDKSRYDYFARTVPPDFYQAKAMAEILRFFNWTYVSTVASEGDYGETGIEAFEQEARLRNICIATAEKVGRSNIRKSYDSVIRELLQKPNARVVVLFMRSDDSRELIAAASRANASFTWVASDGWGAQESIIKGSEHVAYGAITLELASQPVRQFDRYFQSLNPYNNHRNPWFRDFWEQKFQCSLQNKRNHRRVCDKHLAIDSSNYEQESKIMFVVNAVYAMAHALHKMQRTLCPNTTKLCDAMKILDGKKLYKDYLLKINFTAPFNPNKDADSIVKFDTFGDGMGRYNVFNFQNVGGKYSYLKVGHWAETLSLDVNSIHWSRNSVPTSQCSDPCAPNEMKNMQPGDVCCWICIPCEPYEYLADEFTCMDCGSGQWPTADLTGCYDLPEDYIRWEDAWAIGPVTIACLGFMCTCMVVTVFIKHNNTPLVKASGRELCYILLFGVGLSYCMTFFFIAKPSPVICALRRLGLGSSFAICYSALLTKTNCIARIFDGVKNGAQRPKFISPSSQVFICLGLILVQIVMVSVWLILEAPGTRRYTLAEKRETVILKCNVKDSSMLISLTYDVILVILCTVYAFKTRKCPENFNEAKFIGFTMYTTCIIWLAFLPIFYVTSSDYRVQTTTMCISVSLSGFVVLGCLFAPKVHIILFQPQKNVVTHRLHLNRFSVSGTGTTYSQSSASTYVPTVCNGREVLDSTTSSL

With `CN1C(=O)c2cccn2-c2cc(-c3ccnc(F)c3)ccc2C12CC2` [Example 34, 5-Methyl-9-(2-fluoropyridin-4-yl)-spiro[benzo[f]pyrrolo[1,2-a][1,4]diazepine-6,1′-cyclopropan]-4(5H)-one], the melting point – broadly, the temperature of the solid-liquid transition – lay within 197 to 201 °C. Further, on human mGluR3 (hmGluR3), the half-maximal effective concentration (EC50) (commonly the concentration needed to bring the measured effect to its halfway point) lay within 0.1 to 1 µM.

Take `CN1C(=O)c2cccn2-c2cc(-c3ccnc(C(F)(F)F)c3)ccc2C12CC2` [Example 35, 5-Methyl-9-(2-trifluoromethylpyridin-4-yl)-spiro[benzo[f]pyrrolo[1,2-a][1,4]diazepine-6,1′-cyclopropan]-4(5H)-one]: the melting point was 169 to 174 °C. This compound showed an EC50 on human mGluR3 (hmGluR3) of 0.1 to 1 µM.

As for `CN1C(=O)c2cccn2-c2cc(-c3cccnc3C(F)(F)F)ccc2C12CC2` [Example 36, 5-Methyl-9-(2-trifluoromethylpyridin-3-yl)-spiro[benzo[f]pyrrolo[1,2-a][1,4]diazepine-6,1′-cyclopropan]-4(5H)-one], the melting point lay within 160 to 165 °C. The EC50 at human mGluR3 (hmGluR3) was 0.1 to 1 µM.

In turn, `CN1C(=O)c2cccn2-c2cc(-c3cnccc3C(F)(F)F)ccc2C12CC2` [Example 37, 5-Methyl-9-(4-trifluoromethylpyridin-3-yl)-spiro[benzo[f]pyrrolo[1,2-a][1,4]diazepine-6,1′-cyclopropan]-4(5H)-one] came in with a melting point of 67 to 78 °C. Besides, the EC50 at human mGluR3 (hmGluR3) is greater than 1 µM.

As to `COc1ccc(-c2ccc3c(c2)-n2cccc2C(=O)N(C)C32CC2)cc1OC` [Example 39, 5-Methyl-9-(3,4-dimethoxy-phenyl)-spiro[benzo[f]pyrrolo[1,2-a][1,4]diazepine-6,1′-cyclopropan]-4(5H)-one], the melting point was 150 to 154 °C. Also, the half-maximal effective concentration (EC50) at human mGluR3 (hmGluR3) lay in the range of 0.1 to 1 µM.

In turn, `CN1C(=O)c2cccn2-c2cc(-c3cccc(C#N)c3)ccc2C12CC2` [Example 44, 5-Methyl-9-(3-cyanophenyl)-spiro[benzo[f]pyrrolo[1,2-a][1,4]diazepine-6,1′-cyclopropan]-4(5H)-one] came in with a melting point of 189 to 194 °C. The compound also returned a 50% effective concentration (EC50) on human mGluR3 (hmGluR3) of less than 0.1 µM.

The compound `CN1C(=O)c2cccn2-c2cc(-c3cccc(-c4nnn[nH]4)c3)ccc2C12CC2` [Example 45, 5-Methyl-9-(3-(1H-tetrazol-5-yl)-phenyl)-spiro[benzo[f]pyrrolo[1,2-a][1,4]diazepine-6,1′-cyclopropan]-4(5H)-one] had a melting point greater than 250 °C. The 50% effective concentration (EC50) at human mGluR3 (hmGluR3) is 0.1 to 1 µM.

Consider `CC(=O)N1CC=C(c2ccc3c(c2)-n2cccc2C(=O)N(C)C32CC2)CC1` [Example 48, 5-Methyl-9-(1-acetyl-1,2,3,6-tetrahydro-pyridin-4-yl)-spiro[benzo[f]pyrrolo[1,2-a][1,4]diazepine-6,1′-cyclopropan]-4(5H)-one], for which the melting point is 101 to 110 °C. The EC50 at human mGluR3 (hmGluR3) fell in the range of 0.1 to 1 µM.

The compound `Cc1ncoc1-c1ccc2c(c1)-n1cccc1C(=O)N(C)C21CC1` [Example 49, 5-Methyl-9-(4-methyl-oxazol-5-yl)-spiro[benzo[f]pyrrolo[1,2-a][1,4]diazepine-6,1′-cyclopropan]-4(5H)-one] displayed a melting point of 120 to 128 °C. Further, the EC50 on human mGluR3 (hmGluR3) was greater than 1 µM.

For `Cc1ncsc1-c1ccc2c(c1)-n1cccc1C(=O)N(C)C21CC1` [Example 50, 5-Methyl-9-(4-methylthiazol-5-yl)-spiro[benzo[f]pyrrolo[1,2-a][1,4]diazepine-6,1′-cyclopropan]-4(5H)-one], the melting point is 205 to 212 °C. The 50% effective concentration (EC50) at human mGluR3 (hmGluR3) was in the range of 0.1 to 1 µM.

Regarding `CN1C(=O)c2cccn2-c2cc(CC#N)ccc2C12CC2` [Example 51, 5-Methyl-9-acetonitrile-spiro[benzo[f]pyrrolo[1,2-a][1,4]diazepine-6,1′-cyclopropan]-4(5H)-one], the melting point was in the range of 60 to 69 °C. For the same compound, at human mGluR3 (hmGluR3), the 50% effective concentration (EC50) is greater than 1 µM.

`CN1C(=O)c2cccn2-c2cc(CCC#N)ccc2C12CC2` [Example 53, 5-Methyl-9-propionitrile-spiro[benzo[f]pyrrolo[1,2-a][1,4]diazepine-6,1′-cyclopropan]-4(5H)-one] displayed a melting point of 59 to 64 °C. For the same compound, at human mGluR3 (hmGluR3), the EC50 is greater than 1 µM.

In turn, `[2H]C([2H])([2H])N1C(=O)c2cccn2-c2cc(-c3ccc(F)nc3)ccc2C12CC2` [Example 55, 5-(Methyl-d3)-9-(6-fluoropyridin-3-yl)-spiro[benzo[f]pyrrolo[1,2-a][1,4]diazepine-6,1′-cyclopropan]-4(5H)-one] gave a melting point of 166 to 178 °C. The EC50 at human mGluR3 (hmGluR3) was less than 0.1 µM.

Take `CN1C(=O)c2cccn2-c2cc(-c3ccc(C(F)(F)F)nc3)ccc2C12CC2` [Example 60, 5-Methyl-9-(6-trifluoromethylpyridin-3-yl)-spiro[benzo[f]pyrrolo[1,2-a][1,4]diazepine-6,1′-cyclopropan]-4(5H)-one]: the melting point lay within 88 to 97 °C. This compound also came in with a half-maximal effective concentration (EC50) on human mGluR3 (hmGluR3) of 0.1 to 1 µM.

`[2H]C([2H])([2H])N1C(=O)c2cccn2-c2cc(-c3ccc(F)cn3)ccc2C12CC2` [Example 64, 5-(Methyl-d3)-9-(5-fluoropyridin-2-yl)-spiro[benzo[f]pyrrolo[1,2-a][1,4]diazepine-6,1′-cyclopropan]-4(5H)-one] came in with a melting point of 138 to 142 °C. Also, the 50% effective concentration (EC50) on human mGluR3 (hmGluR3) was less than 0.1 µM.

`CN1C(=O)c2cccn2-c2cc(-c3ncccc3F)ccc2C12CC2` [Example 66, 5-Methyl-9-(3-fluoropyridin-2-yl)-spiro[benzo[f]pyrrolo[1,2-a][1,4]diazepine-6,1′-cyclopropan]-4(5H)-one] gave a melting point of 102 to 118 °C. Also, the EC50 on human mGluR3 (hmGluR3) is greater than 1 µM.

With `CN1C(=O)c2cccn2-c2cc(-c3cccc(F)n3)ccc2C12CC2` [Example 67, 5-Methyl-9-(6-fluoropyridin-2-yl)-spiro[benzo[f]pyrrolo[1,2-a][1,4]diazepine-6,1′-cyclopropan]-4(5H)-one], the melting point was in the range of 106 to 117 °C. The EC50 on human mGluR3 (hmGluR3) fell in the range of 0.1 to 1 µM.

Turning to `CN1C(=O)c2cccn2-c2cc(-c3cc[nH]c(=O)c3)ccc2C12CC2` [Example 68, 5-Methyl-9-(2-hydroxypyridin-4-yl)-spiro[benzo[f]pyrrolo[1,2-a][1,4]diazepine-6,1′-cyclopropan]-4(5H)-one], the melting point lay within 183 to 197 °C. The same compound returned an EC50 on human mGluR3 (hmGluR3) greater than 1 µM.

The compound `CN1C(=O)c2cccn2-c2cc(-c3ccc(C(F)(F)F)cn3)ccc2C12CC2` [Example 69, 5-Methyl-9-(5-trifluoromethylpyridin-2-yl)-spiro[benzo[f]pyrrolo[1,2-a][1,4]diazepine-6,1′-cyclopropan]-4(5H)-one] had a melting point of 78 to 89 °C. The same compound came in with a half-maximal effective concentration (EC50) on human mGluR3 (hmGluR3) of 0.1 to 1 µM.

Compound `COC(=O)c1ncccc1-c1ccc2c(c1)-n1cccc1C(=O)N(C)C21CC1` [Example 71, 5-Methyl-9-(2-methoxycarbonylpyridin-3-yl)-spiro[benzo[f]pyrrolo[1,2-a][1,4]diazepine-6,1′-cyclopropan]-4(5H)-one] returned a melting point of 198 to 203 °C. Further, the EC50 at human mGluR3 (hmGluR3) is greater than 1 µM.

Consider `CN1C(=O)c2cccn2-c2cc(-c3cccnc3C(C)(C)O)ccc2C12CC2` [Example 72, 5-Methyl-9-(2-(1-hydroxy-1-methyl-ethyl)-pyridin-3-yl)-spiro[benzo[f]pyrrolo[1,2-a][1,4]diazepine-6,1′-cyclopropan]-4(5H)-one], for which the melting point was 220 to 228 °C. Besides, the EC50 at human mGluR3 (hmGluR3) was greater than 1 µM.

As to `CN1C(=O)c2cccn2-c2cc(-c3ccc(F)nc3)cc(F)c2C12CC2` [Example 74, 7-Fluoro-5-methyl-9-(6-fluoro-pyridin-3-yl)-spiro[benzo[f]pyrrolo[1,2-a][1,4]diazepine-6,1′-cyclopropan]-4(5H)-one], the melting point lay in the range of 220 to 225 °C. At human mGluR3 (hmGluR3), the concentration giving a half-maximal response (EC50) was less than 0.1 µM.

With `CN1C(=O)c2cccn2-c2c(ccc(-c3ccc(F)nc3)c2F)C12CC2` [Example 76, 10-Fluoro-5-Methyl-9-(6-fluoro-pyridin-3-yl)-spiro[benzo[f]pyrrolo[1,2-a][1,4]diazepine-6,1′-cyclopropan]-4(5H)-one], the melting point lay in the range of 153 to 157 °C. On human mGluR3 (hmGluR3), this compound yielded an EC50 of less than 0.1 µM.

As for `CN1C(=O)c2cccn2-c2cc(-c3ccc(F)nc3)c(F)cc2C12CC2` [Example 78, 8-Fluoro-5-methyl-9-(6-fluoro-pyridin-3-yl)-spiro[benzo[f]pyrrolo[1,2-a][1,4]diazepine-6,1′-cyclopropan]-4(5H)-one], the melting point was in the range of 185 to 192 °C. Further, the half-maximal effective concentration (EC50) on human mGluR3 (hmGluR3) was in the range of 0.1 to 1 µM.

Regarding `CN1C(=O)c2ccc(-c3ccnn3C)n2-c2cc(-c3ccc(F)cn3)ccc2C12CC2` [Example 86, 5-Methyl-1-(2-methyl-2H-pyrazol-3-yl)9-(5-fluoropyridin-2-yl)-spiro[benzo[f]pyrrolo[1,2-a][1,4]diazepine-6,1′-cyclopropan]-4(5H)-one], the melting point lay in the range of 143 to 166 °C. The same compound returned a concentration giving a half-maximal response (EC50) at human mGluR3 (hmGluR3) greater than 1 µM.

With `Cc1ccc2c(c1)C1(CC1)N(C)C(=O)c1cccn1-2` [Example 87, 5,8-Dimethyl-spiro[benzo[f]pyrrolo[1,2-a][1,4]diazepine-6,1′-cyclopropan]-4(5H)-one], the melting point lay within 143 to 150 °C. Moreover, the EC50 at human mGluR3 (hmGluR3) was greater than 1 µM.

For `CN1C(=O)c2cccn2-c2ccc(N3CCOCC3)cc2C12CC2` [Example 88, 8-Morpholin-4-yl-5-methyl-spiro[benzo[f]pyrrolo[1,2-a][1,4]diazepine-6,1′-cyclopropan]-4(5H)-one], the melting point is 140 to 146 °C. Further, the EC50 on human mGluR3 (hmGluR3) was greater than 1 µM.

Compound `Cc1cccc2c1C1(CC1)N(C)C(=O)c1cccn1-2` [Example 89, 5,7-Dimethyl-spiro[benzo[f]pyrrolo[1,2-a][1,4]diazepine-6,1′-cyclopropan]-4(5H)-one] yielded a melting point of 126 to 134 °C. Moreover, the 50% effective concentration (EC50) at human mGluR3 (hmGluR3) was greater than 1 µM.
